Data reported in patent US9855265B2, “Methods for treating cancer with TrkA receptor tyrosine kinase antagonists” (VM Oncology LLC, priority 2014, dated 2018).

Experiments:
[1] = tested on: HepG2 human liver cancer cells; assay: Cell Viability and Proliferation Assay, HepG2; format: cell-based; conditions: after 24 incubation
Description: (§1) Cell Viability and Proliferation Assays. To assess the chemosensitivity of tumor cells, cell viability is measured by CellTiter-Glo® Luminescent Cell Viability Assay (Promega; Wis., USA) per the manufacturer's instruction. Briefly, 5×10^3 to 7×10^5 cells/ml are cultured in sterile 96-well plates in the presence of increasing concentrations of the drugs (test article, 0 to 100 μM), or vehicle in RPMI medium. The plates are then incubated for 24 to 96 h, and then 100 μl of CellTiter-Glo reagent is added to lyse the cells. After a 10-min incubation at room temperature, the luminescence is recorded in a luminometer with an integration time of 1 s per well. The luminescence signals for the drug-treated cells are normalized by the luminescence signal obtained from vehicle-treated cells. As an alternative method to quantitate cell viability, the trypan blue exclusion dye method was used. Vehicle- or drug-treated cells were assayed by adding trypan blue solution (0.4% in phosphate-buffered saline [PBS]) to the culture medium. After 3 min, the number of dead cells that retained the dye is compared to the total number of cells to calculate cell viability. GraphPad Prism 5 software is used to calculate IC50 and plot effect-dose curve of drugs. Multiplate reader: EnVision 2104 (PerkinElmer). % of control variability=100*[(X(drug_treated)−L(baseline))/(H(vehicle_control)−L(baseline))]. […]

TrkB = TrkB (Homo sapiens, UniProt Q16620); assay: radiometric kinase assay, other kinases: TrkB; format: biochemical; parameters: other kinases of recombinant human cytoplasmic domain; conditions: duplicate
Description: (§2) Compound inhibition in a radiometric based mixed micelle assay: In a final reaction volume of 25 μL, TrkA (h) ([…]) is incubated with the kinase reaction buffer (20 mM HEPES (pH 7.5), 10 mM MgCl2, 1 mM EGTA, 0.02% Brij 35, 0.02 mg/ml BSA, 0.1 mM Na3VO4, 2 mM DTT, 1% DMSO), 0.2 mg/ml substrate PolyEY(4:1) and […], and [^33P-ATP](specific activity approx. 500 cpm/pmol, concentration as required). The reaction is initiated by the addition of the MgATP mix. After incubation for at least 40 minutes at room temperature, the reaction is stopped by the addition of 5 μL of a 3% phosphoric acid solution. 10 μL of the reaction is then spotted onto a P30 filtermat and washed three times for 5 minutes in 75 mM phosphoric acid and once in methanol prior to drying and scintillation counting. TrkA: Recombinant Human Cytoplasmic Domain (amino acids 441-796), Histidine-tagged, expressed in insect cells. Activated in vitro via auto-phosphorylation. Mw=42.8 kDa. Substrates for kinases: poly(EY) for TRKA; poly(EY)(4:1) with 2 mM MnCl2, average Mw=16 kDa Standard conditions (unless otherwise specified): 30 nM TRKA, 0.2 mg/ml poly(EY)+2 mM MnCl2, and 10 μM ([γ-^33P]) ATP. Using the similar assay condition with other kinases of recombinant human cytoplasmic domain, the activities of other kinases could be also measured.

PKCeta = PKCeta (Homo sapiens, UniProt P24723); assay: radiometric kinase assay, other kinases: PKCeta; format: biochemical; conditions: duplicate
Description: as §2

LYN = LYN (Homo sapiens, UniProt P07948); assay: radiometric kinase assay, other kinases: LYN; format: biochemical; conditions: duplicate
Description: as §2

FYN = FYN (Homo sapiens, UniProt P06241); assay: radiometric kinase assay, other kinases: FYN; format: biochemical; conditions: duplicate
Description: as §2

AXL = target: T1, AXL (Homo sapiens, UniProt P30530); assay: radiometric kinase assay, other kinases: AXL; format: biochemical; conditions: duplicate
T1 construct: other kinases of recombinant human cytoplasmic domain
Description: as §2

ITK = ITK (Homo sapiens, UniProt Q08881); assay: radiometric kinase assay, other kinases: ITK; format: biochemical; conditions: duplicate
Description: as §2

IR = target: T2, IR (Homo sapiens, UniProt P06213); assay: radiometric kinase assay, other kinases: IR; format: biochemical; conditions: duplicate
T2 construct: other kinases of recombinant human cytoplasmic domain
Description: as §2

IGF-1R = target: T3, IGF-1R (Homo sapiens, UniProt P08069); assay: radiometric kinase assay, other kinases: IGF-1R; format: biochemical; conditions: duplicate
T3 construct: other kinases of recombinant human cytoplasmic domain
Description: as §2

PKCzeta = PKCzeta (Homo sapiens, UniProt Q05513); assay: radiometric kinase assay, other kinases: PKCzeta; format: biochemical; conditions: duplicate
Description: as §2

FGFR1 = target: T4, FGFR1 (Homo sapiens, UniProt P11362); assay: radiometric kinase assay, other kinases: FGFR1; format: biochemical; conditions: duplicate
T4 construct: other kinases of recombinant human cytoplasmic domain
Description: as §2

JNK3 = JNK3 (Homo sapiens, UniProt P53779); assay: radiometric kinase assay, other kinases: JNK3; format: biochemical; conditions: duplicate
Description: as §2

FES/FPS = FES/FPS (Homo sapiens, UniProt P07332); assay: radiometric kinase assay, other kinases: FES/FPS; format: biochemical; conditions: duplicate
Description: as §2

BMX = BMX (Homo sapiens, UniProt P51813); assay: radiometric kinase assay, other kinases: BMX; format: biochemical; conditions: duplicate
Description: as §2

FLT1 = target: T5, FLT1 (Homo sapiens, UniProt P17948); assay: radiometric kinase assay, other kinases: FLT1; format: biochemical; conditions: duplicate
T5 construct: other kinases of recombinant human cytoplasmic domain
Description: as §2

VEGFR3/FLT4 = target: T6, VEGFR3/FLT4 (Homo sapiens, UniProt P35916); assay: radiometric kinase assay, other kinases: VEGFR3/FLT4; format: biochemical; conditions: duplicate
T6 construct: other kinases of recombinant human cytoplasmic domain
Description: as §2

TrkC = TrkC (Homo sapiens, UniProt Q16288); assay: radiometric kinase assay, other kinases: TrkC; format: biochemical; parameters: other kinases of recombinant human cytoplasmic domain; conditions: duplicate
Description: as §2

[2] = tested on: Capan-1 human pancreatic cancer cells; assay: Cell Viability and Proliferation Assay, Capan-1; format: cell-based; conditions: after 24 incubation
Description: as §1

PKCdelta = PKCdelta (Homo sapiens, UniProt Q05655); assay: radiometric kinase assay, other kinases: PKCdelta; format: biochemical; conditions: duplicate
Description: as §2

EPHA1 = target: T7, EPHA1 (Homo sapiens, UniProt P21709); assay: radiometric kinase assay, other kinases: EPHA1; format: biochemical; conditions: duplicate
T7 construct: other kinases of recombinant human cytoplasmic domain
Description: as §2

LCK = LCK (Homo sapiens, UniProt P06239); assay: radiometric kinase assay, other kinases: LCK; format: biochemical; conditions: duplicate
Description: as §2

c-Src = c-Src (Homo sapiens, UniProt P12931); assay: radiometric kinase assay, other kinases: c-Src; format: biochemical; conditions: duplicate
Description: as §2

PKCtheta = PKCtheta (Homo sapiens, UniProt Q04759); assay: radiometric kinase assay, other kinases: PKCtheta; format: biochemical; conditions: duplicate
Description: as §2

P38b/MAPK11 = P38b/MAPK11 (Homo sapiens, UniProt Q15759); assay: radiometric kinase assay, other kinases: P38b/MAPK11; format: biochemical; conditions: duplicate
Description: as §2

CDK2/cyclinA = CDK2/cyclinA (Homo sapiens, UniProt P24941); assay: radiometric kinase assay, other kinases: CDK2/cyclinA; format: biochemical; conditions: duplicate
Description: as §2

Sequence of LYN (P07948 whole entry): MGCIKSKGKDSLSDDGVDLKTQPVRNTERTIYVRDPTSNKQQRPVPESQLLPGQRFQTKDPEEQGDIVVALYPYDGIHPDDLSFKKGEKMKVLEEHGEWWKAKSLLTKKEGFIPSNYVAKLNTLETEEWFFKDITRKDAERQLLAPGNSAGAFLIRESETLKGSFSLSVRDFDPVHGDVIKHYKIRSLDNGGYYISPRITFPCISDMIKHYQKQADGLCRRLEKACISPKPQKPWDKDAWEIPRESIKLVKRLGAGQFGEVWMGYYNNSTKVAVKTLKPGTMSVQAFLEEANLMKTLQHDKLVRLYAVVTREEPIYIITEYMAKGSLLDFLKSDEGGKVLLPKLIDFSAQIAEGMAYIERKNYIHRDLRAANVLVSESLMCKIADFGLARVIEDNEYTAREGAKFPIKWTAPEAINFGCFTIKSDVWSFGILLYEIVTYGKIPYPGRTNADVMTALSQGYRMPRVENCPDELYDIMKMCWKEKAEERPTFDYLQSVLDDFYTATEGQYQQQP
Sequence of P38b/MAPK11 (Q15759 whole entry): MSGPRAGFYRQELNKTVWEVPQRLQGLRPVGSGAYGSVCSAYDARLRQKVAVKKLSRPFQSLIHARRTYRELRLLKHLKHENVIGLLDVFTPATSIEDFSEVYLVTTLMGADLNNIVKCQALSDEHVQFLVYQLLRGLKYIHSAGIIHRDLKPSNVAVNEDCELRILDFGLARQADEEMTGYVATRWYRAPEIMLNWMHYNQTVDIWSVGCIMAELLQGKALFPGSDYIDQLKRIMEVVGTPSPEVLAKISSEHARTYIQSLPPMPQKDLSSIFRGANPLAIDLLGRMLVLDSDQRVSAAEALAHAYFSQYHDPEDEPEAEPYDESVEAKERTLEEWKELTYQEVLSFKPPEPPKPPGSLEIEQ
Sequence of PKCzeta (Q05513 whole entry): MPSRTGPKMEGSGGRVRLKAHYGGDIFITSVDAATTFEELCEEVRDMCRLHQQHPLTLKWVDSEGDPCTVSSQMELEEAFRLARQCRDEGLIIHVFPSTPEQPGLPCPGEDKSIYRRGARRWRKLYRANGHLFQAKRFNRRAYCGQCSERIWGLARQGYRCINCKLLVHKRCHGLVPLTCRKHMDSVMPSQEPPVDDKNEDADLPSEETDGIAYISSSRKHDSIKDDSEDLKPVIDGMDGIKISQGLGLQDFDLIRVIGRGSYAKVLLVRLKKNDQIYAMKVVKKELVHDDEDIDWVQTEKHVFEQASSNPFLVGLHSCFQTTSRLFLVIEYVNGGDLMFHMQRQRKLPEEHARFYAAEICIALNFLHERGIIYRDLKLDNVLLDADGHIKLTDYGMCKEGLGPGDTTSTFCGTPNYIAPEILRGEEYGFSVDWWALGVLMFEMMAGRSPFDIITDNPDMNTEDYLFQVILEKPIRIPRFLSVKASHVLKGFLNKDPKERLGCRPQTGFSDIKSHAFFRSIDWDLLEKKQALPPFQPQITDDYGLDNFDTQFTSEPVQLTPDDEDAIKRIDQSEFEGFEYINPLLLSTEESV
T2 sequence (P06213 980-1382 limits assumed): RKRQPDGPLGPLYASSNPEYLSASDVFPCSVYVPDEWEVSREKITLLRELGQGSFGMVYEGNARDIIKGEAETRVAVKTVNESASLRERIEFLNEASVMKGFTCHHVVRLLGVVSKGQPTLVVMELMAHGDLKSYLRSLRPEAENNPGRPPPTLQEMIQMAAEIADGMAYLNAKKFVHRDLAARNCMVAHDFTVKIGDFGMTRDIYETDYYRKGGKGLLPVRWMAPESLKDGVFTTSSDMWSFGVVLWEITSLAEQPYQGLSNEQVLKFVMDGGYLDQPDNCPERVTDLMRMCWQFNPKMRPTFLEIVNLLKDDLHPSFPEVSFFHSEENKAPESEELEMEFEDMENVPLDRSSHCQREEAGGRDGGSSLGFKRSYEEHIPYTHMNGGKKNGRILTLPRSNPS
Sequence of TrkB (Q16620 455-822 limits assumed): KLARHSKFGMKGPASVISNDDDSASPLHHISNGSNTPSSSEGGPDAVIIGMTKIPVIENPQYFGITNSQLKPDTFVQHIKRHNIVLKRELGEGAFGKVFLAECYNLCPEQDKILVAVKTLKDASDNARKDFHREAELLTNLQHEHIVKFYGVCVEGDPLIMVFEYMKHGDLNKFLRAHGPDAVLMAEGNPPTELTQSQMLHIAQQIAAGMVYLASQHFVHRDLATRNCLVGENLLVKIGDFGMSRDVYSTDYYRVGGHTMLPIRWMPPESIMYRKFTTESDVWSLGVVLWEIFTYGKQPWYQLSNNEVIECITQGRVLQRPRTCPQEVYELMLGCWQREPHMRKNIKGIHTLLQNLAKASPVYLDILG
Sequence of LCK (P06239 whole entry): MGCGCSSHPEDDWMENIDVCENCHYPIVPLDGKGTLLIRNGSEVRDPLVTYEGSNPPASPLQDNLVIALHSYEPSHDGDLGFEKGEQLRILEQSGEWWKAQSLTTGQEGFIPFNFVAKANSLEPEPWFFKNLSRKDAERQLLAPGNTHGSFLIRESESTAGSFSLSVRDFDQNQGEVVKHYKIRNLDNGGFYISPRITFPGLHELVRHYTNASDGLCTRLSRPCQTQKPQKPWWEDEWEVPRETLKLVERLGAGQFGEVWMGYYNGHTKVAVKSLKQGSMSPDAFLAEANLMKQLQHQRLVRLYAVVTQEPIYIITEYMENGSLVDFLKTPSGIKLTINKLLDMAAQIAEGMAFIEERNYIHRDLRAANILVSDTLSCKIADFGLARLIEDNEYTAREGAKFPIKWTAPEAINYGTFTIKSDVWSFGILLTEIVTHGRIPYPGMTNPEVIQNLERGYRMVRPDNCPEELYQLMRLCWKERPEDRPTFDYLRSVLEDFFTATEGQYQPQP
Sequence of BMX (P51813 whole entry): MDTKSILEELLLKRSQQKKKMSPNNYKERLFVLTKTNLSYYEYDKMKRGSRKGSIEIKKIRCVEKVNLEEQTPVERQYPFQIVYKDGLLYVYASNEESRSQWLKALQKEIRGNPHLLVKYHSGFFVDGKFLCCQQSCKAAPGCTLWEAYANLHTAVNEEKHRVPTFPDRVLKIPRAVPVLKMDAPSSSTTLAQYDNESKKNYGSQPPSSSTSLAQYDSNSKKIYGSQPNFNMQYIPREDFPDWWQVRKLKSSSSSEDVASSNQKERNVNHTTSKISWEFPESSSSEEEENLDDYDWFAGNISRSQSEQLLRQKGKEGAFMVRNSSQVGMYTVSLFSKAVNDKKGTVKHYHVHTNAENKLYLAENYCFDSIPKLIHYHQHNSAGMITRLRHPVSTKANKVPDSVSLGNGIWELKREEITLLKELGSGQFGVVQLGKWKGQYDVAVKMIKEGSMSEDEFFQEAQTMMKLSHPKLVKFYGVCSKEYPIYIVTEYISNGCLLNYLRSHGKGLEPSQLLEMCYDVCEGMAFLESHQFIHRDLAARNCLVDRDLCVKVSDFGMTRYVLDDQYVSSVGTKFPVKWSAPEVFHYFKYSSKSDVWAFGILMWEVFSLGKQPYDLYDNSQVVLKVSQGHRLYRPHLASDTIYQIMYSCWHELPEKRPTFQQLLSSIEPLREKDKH
Sequence of JNK3 (P53779 whole entry): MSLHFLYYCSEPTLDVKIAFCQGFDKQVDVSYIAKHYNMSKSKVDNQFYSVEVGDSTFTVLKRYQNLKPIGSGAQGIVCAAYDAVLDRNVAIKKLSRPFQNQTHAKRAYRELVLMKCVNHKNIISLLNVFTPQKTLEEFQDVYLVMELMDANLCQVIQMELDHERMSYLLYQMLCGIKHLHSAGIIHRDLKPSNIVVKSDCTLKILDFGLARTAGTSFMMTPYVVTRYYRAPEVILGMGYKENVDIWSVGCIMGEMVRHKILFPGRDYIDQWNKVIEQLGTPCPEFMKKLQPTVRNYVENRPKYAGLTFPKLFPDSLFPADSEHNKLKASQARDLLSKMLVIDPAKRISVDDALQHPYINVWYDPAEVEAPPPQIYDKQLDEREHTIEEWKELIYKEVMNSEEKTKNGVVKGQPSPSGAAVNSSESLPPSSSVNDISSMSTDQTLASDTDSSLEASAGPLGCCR
T3 sequence (P08069 960-1367 limits assumed): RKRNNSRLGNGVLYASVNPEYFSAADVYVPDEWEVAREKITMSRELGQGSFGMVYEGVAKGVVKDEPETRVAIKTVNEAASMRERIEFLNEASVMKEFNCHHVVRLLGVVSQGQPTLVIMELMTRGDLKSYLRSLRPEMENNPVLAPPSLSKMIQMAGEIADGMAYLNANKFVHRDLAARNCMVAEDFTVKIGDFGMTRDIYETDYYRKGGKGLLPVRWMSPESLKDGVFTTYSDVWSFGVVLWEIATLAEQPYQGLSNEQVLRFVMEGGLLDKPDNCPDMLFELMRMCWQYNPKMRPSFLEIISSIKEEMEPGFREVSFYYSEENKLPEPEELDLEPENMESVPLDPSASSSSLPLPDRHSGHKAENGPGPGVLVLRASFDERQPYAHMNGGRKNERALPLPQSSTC
Sequence of FYN (P06241 whole entry): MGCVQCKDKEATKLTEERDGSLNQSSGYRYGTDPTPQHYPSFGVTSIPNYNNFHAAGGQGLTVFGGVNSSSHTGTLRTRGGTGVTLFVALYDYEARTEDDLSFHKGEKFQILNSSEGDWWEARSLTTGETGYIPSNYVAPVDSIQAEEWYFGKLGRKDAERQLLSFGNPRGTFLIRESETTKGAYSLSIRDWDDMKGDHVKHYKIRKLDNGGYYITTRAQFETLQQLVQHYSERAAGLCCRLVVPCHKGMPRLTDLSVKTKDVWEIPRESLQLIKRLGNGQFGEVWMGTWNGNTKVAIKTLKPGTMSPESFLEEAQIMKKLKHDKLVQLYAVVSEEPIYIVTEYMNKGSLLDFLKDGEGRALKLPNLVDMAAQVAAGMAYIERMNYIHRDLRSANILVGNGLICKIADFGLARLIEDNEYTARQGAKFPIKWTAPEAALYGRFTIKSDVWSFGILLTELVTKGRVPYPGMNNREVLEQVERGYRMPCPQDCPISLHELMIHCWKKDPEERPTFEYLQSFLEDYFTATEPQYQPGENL

## Nc1c(N2CCN(C3CCCCC3)CC2)cc(Nc2ccc(C(=O)O)cc2)c2c1C(=O)c1ccccc1C2=O [Compound 12, 4-{[4-amino-3-(4-cyclohexylpiperazin-1-yl)-9,10-dioxo-9,10-dihydroanthracen-1-yl]amino}benzoic acid]
[1]
  IC50: ~5 µM
TrkB
  IC50: > 10 µM
PKCeta
  IC50: > 10 µM
LYN
  IC50: > 10 µM
FYN
  IC50: > 10 µM
AXL
  IC50: > 10 µM
ITK
  IC50: > 10 µM
IR
  IC50: > 10 µM
IGF-1R
  IC50: > 10 µM
PKCzeta
  IC50: > 10 µM
FGFR1
  IC50: > 10 µM
JNK3
  IC50: > 10 µM
FES/FPS
  IC50: > 10 µM
BMX
  IC50: > 10 µM
FLT1
  IC50: > 10 µM
VEGFR3/FLT4
  IC50: > 10 µM
TrkC
  IC50: > 10 µM
[2]
  IC50: 2 to 5 µM
PKCdelta
  IC50: > 10 µM
EPHA1
  IC50: > 10 µM
LCK
  IC50: > 10 µM
c-Src
  IC50: > 10 µM
PKCtheta
  IC50: > 10 µM
P38b/MAPK11
  IC50: > 10 µM
CDK2/cyclinA
  IC50: > 10 µM
